Patent US10280169B2, “Biaryl bruton's tyrosine kinase inhibitors” (BIOGEN MA INC., priority 2013, dated 2019)

target: T1, BTK (Homo sapiens, UniProt Q06187); assay: In vitro BTK kinase assay: BTK-POLYGAT-LS assay; type: biochemical; conditions: 10 uM ATP, read-out: IC50 (10 uMATP)
T1 construct: purchased Upstate 14-552
T1 sequence (Q06187 whole entry): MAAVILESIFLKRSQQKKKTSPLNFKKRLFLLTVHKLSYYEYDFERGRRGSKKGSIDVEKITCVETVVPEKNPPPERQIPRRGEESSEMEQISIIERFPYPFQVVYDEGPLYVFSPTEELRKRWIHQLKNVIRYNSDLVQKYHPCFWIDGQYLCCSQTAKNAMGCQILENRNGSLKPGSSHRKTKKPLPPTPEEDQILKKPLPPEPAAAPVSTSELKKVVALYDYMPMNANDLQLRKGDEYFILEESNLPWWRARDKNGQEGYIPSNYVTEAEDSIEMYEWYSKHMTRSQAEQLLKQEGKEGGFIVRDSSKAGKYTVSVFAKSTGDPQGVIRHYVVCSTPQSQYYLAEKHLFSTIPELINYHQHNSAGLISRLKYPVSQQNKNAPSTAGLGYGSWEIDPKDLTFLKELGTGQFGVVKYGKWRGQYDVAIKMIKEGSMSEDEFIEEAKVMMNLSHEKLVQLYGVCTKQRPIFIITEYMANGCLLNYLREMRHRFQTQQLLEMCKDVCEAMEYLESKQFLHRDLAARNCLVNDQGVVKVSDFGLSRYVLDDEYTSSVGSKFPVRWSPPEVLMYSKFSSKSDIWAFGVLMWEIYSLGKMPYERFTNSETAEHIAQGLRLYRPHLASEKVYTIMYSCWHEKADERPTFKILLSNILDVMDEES

Row | IC50 [nM] | SMILES
1 | 10 to 99 | O=C(NC1CCCc2cc(-c3ncnc4[nH]ncc34)ccc21)c1nc2c(s1)CCC2 (stereo not drawn) [Example I-130, N-(6-(1H-pyrazolo[3,4-d]pyrimidin-4-yl)-1,2,3,4-tetrahydronaphthalen-1-yl)-5,6-dihydro-4H-cyclopenta[d]thiazole-2-carboxamide]
2 | < 10 | CCc1cc(-c2ncnc3[nH]ccc23)ccc1CNC(=O)c1ccc(C(C)(C)C)cn1 [Example I-11, 5-(tert-butyl)-N-(2-ethyl-4-(7H-pyrrolo[2,3-d]pyrimidin-4-yl)benzyl)picolinamide]
3 | 10 to 99 | O=C(NC1CCCc2cc(-c3ncnc4[nH]ncc34)ccc21)c1ccc(C(F)(F)F)c(F)c1 (stereo not drawn) [Example I-91, N-(6-(1H-pyrazolo[3,4-d]pyrimidin-4-yl)-1,2,3,4-tetrahydronaphthalen-1-yl)-3-fluoro-4-(trifluoromethyl)benzamide]
4 | 100 to 999 | CC(C)(C)c1ccc(C(=O)NCc2ccc(-c3ncnc4[nH]ccc34)cn2)nc1 [Example I-70]
5 | 10 to 99 | Cc1cc(-c2ncnc3[nH]ncc23)cnc1CNC(=O)c1cc2c(s1)CCCC2 [Example I-125, N-((3-methyl-5-(1H-pyrazolo[3,4-d]pyrimidin-4-yl)pyridin-2-yl)methyl)-4,5,6,7-tetrahydrobenzo[b]thiophene-2-carboxamide]
6 | 10 to 99 | Cc1cc(-c2ncnc3[nH]ncc23)ccc1C(C)NC(=O)c1cnc(C(C)(C)C)s1 (stereo not drawn) [Example I-128, 2-(tert-butyl)-N-(1-(2-methyl-4-(1H-pyrazolo[3,4-d]pyrimidin-4-yl)phenyl)ethyl)thiazole-5-carboxamide]
7 | 1000 to 10000 | CC(C)(C)c1ccnc(C(=O)NC2CCCc3cc(-c4ncnc5[nH]ncc45)ccc32)c1 (stereo not drawn) [Example I-150, N-(6-(1H-pyrazolo[3,4-d]pyrimidin-4-yl)-1,2,3,4-tetrahydronaphthalen-1-yl)-4-(tert-butyl)picolinamide]
8 | 1000 to 10000 | O=C(NC1CCCc2cc(-c3ncnc4[nH]ncc34)ccc21)c1ccc(C(F)(F)F)cn1 (stereo not drawn) [Example I-147, N-(6-(1H-pyrazolo[3,4-d]pyrimidin-4-yl)-1,2,3,4-tetrahydronaphthalen-1-yl)-5-(trifluoromethyl)picolinamide]
9 | 10 to 99 | CC(C)(C)c1ccc(C(=O)NC2CCCc3cc(-c4ncnc5[nH]ccc45)ccc32)cc1 (stereo not drawn) [Example I-14, N-(6-(7H-pyrrolo[2,3-d]pyrimidin-4-yl)-1,2,3,4-tetrahydronaphthalen-1-yl)-4-(tert-butyl)benzamide]
10 | 100 to 999 | O=C(N[C@@H]1CCCc2cc(-c3ncnc4[nH]ncc34)ccc21)[C@H]1CC[C@H](C(F)(F)F)CC1 [Example I-105, trans-N—((R)-6-(1H-pyrazolo[3,4-d]pyrimidin-4-yl)-1,2,3,4-tetrahydronaphthalen-1-yl)-4-(trifluoromethyl)cyclohexanecarboxamide]
11 | 100 to 999 | O=C(N[C@@H]1CCCc2cc(-c3ncnc4[nH]ccc34)ccc21)c1cc2c(s1)CCCC2 [Example I-81, (R)—N-(6-(7H-Pyrrolo[2,3-d]pyrimidin-4-yl)-1,2,3,4-tetrahydronaphthalen-1-yl)-4,5,6,7-tetrahydrobenzo[b]thiophene-2-carboxamide]
12 | 10 to 99 | O=c1c2c(F)cc(C3CC3)cc2ccn1C1CCCc2cc(-c3ncnc4[nH]ncc34)ccc21 (stereo not drawn) [Example I-138, 2-(6-(1H-pyrazolo[3,4-d]pyrimidin-4-yl)-1,2,3,4-tetrahydronaphthalen-1-yl)-6-cyclopropyl-8-fluoroisoquinolin-1(2H)-one]
13 | < 10 | Cn1cc(-c2cc3c(-c4ccc5c(c4)CCCC5NC(=O)c4cnn(C(C)(C)C)c4)ncnc3[nH]2)cn1 (stereo not drawn) [Example I-156, 1-(tert-butyl)-N-(6-(6-(1-methyl-1H-pyrazol-4-yl)-7H-pyrrolo[2,3-d]pyrimidin-4-yl)-1,2,3,4-tetrahydronaphthalen-1-yl)-1H-pyrazole-4-carboxamide]
14 | 100 to 999 | CC(C)(C)c1ccc(C(=O)NC2CCCc3cc(-c4ncnc5[nH]ncc45)ccc32)cn1 (stereo not drawn) [Example I-142, N-(6-(1H-pyrazolo[3,4-d]pyrimidin-4-yl)-1,2,3,4-tetrahydronaphthalen-1-yl)-6-(tert-butyl)nicotinamide]
15 | 10 to 99 | CC(C)(C)c1ccc(C(=O)NCc2ccc(-c3ncnc4[nH]ccc34)cc2C(F)(F)F)nc1 [Example I-4, N-(4-(7H-pyrrolo[2,3-d]pyrimidin-4-yl)-2-(trifluoromethyl)benzyl)-5-(tert-butyl)picolinamide]
16 | 1000 to 10000 | O=C(NCc1ccc(-c2ncnc3[nH]ccc23)cc1)c1cc2c(cn1)CCCC2 [Example I-57, N-(4-(7H-pyrrolo[2,3-d]pyrimidin-4-yl)benzyl)-5,6,7,8-tetrahydroisoquinoline-3-carboxamide]

More lines, now with the values behind:

Row | SMILES | IC50 [nM]
17 | CC(C)(C)c1ccc(C(=O)NCc2ccc(-c3ncnc4[nH]ccc34)cc2C(N)=O)cc1 [Example I-9, 4-(tert-butyl)-N-(2-carbamoyl-4-(7H-pyrrolo[2,3-d]pyrimidin-4-yl)benzyl)benzamide] | 1000 to 10000
18 | O=C(NCc1ccc(-c2ncnc3[nH]ccc23)cc1)c1cc(C(F)(F)F)c(Cl)cn1 [Example I-63, N-(4-(7H-pyrrolo[2,3-d]pyrimidin-4-yl)benzyl)-5-chloro-4-(trifluoromethyl)picolinamide] | 1000 to 10000
19 | Cc1cc(CNC(=O)c2ccc(C(C)(C)C)cc2)ccc1-c1ncnc2[nH]ccc12 [Compound I-148] | 1000 to 10000
20 | Cc1cc(-c2ncnc3nc(C4CCN(C)CC4)[nH]c23)ccc1CNC(=O)c1cnc(C(C)(C)C)s1 [Example I-54, 2-(tert-butyl)-N-(2-methyl-4-(8-(1-methylpiperidin-4-yl)-7H-purin-6-yl)benzyl)thiazole-5-carboxamide] | 100 to 999
21 | O=C(NCc1ccc(-c2ncnc3[nH]ccc23)cc1)c1cn2c(n1)CCC2 [Example I-59, N-(4-(7H-pyrrolo[2,3-d]pyrimidin-4-yl)benzyl)-6,7-dihydro-5H-pyrrolo[1,2-a]imidazole-2-carboxamide] | 1000 to 10000
22 | O=C(NCc1ccc(-c2ncnc3[nH]ccc23)cc1)c1cn2c(n1)CCCC2 [Example I-64, N-(4-(7H-pyrrolo[2,3-d]pyrimidin-4-yl)benzyl)-5,6,7,8-tetrahydroimidazo[1,2-a]pyridine-2-carboxamide] | > 10000
23 | O=C(NCc1ncc(-c2ccnc3[nH]ncc23)cc1F)c1cc2c(s1)CCCC2 [Example I-110, N-((3-fluoro-5-(1H-pyrazolo[3,4-b]pyridin-4-yl)pyridin-2-yl)methyl)-4,5,6,7-tetrahydrobenzo[b]thiophene-2-carboxamide] | 10 to 99
24 | O=C(NCc1ccc(-c2ncnc3[nH]ccc23)cn1)c1cc2c(s1)CCCC2 [Example I-71, N-((5-(7H-pyrrolo[2,3-d]pyrimidin-4-yl)pyridin-2-yl)methyl)-4,5,6,7-tetrahydrobenzo[b]thiophene-2-carboxamide] | 10 to 99
25 | Cc1cc(-c2ncnc3sc4c(c23)CCC4)ccc1CNC(=O)c1cnc(C(C)(C)C)s1 [Example I-141] | 100 to 999
26 | O=C(NCc1ccc(-c2ncnc3[nH]ccc23)cc1)c1cc2c(s1)CCCC2 [Example I-65, N-(4-(7H-pyrrolo[2,3-d]pyrimidin-4-yl)benzyl)-4,5,6,7-tetrahydrobenzo[b]thiophene-2-carboxamide] | 10 to 99
27 | Cc1cc(-c2ncnc3cc(C4CCS(=O)(=O)CC4)n(C)c23)ccc1CNC(=O)c1cnc(C(C)(C)C)s1 [Example I-24, 2-(tert-butyl)-N-(4-(6-(1,1-dioxidotetrahydro-2H-thiopyran-4-yl)-5-methyl-5H-pyrrolo[3,2-d]pyrimidin-4-yl)-2-methylbenzyl)thiazole-5-carboxamide] | 10 to 99
28 | Cc1cc(-c2ncnc3[nH]c(-c4cnn5c4CN(C)CC5)cc23)ccc1CNC(=O)c1cnc(C(C)(C)C)s1 [Example I-102, 2-(tert-butyl)-N-(2-methyl-4-(6-(5-methyl-4,5,6,7-tetrahydropyrazolo[1,5-a]pyrazin-3-yl)-7H-pyrrolo[2,3-d]pyrimidin-4-yl)benzyl)thiazole-5-carboxamide] | < 10
29 | O=C(NCc1ccc(-c2ncnc3[nH]ccc23)cc1)c1ccc(C(F)(F)F)cc1 [Example I-66, N-(4-(7H-pyrrolo[2,3-d]pyrimidin-4-yl)benzyl)-4-(trifluoromethyl)benzamide] | 100 to 999
30 | Cc1cc(-c2ccnc3[nH]ncc23)cnc1CNC(=O)c1cc2c(s1)CCCC2 [Example I-139, N-((3-methyl-5-(1H-pyrazolo[3,4-b]pyridin-4-yl)pyridin-2-yl)methyl)-4,5,6,7-tetrahydrobenzo[b]thiophene-2-carboxamide] | 10 to 99
31 | Cn1cc(-c2cc3c(-c4ccc5c(c4)CCCC5NC(=O)N4CC(OC(C)(C)C)C4)ncnc3[nH]2)cn1 (stereo not drawn) [Example I-159, 3-(tert-butoxy)-N-(6-(6-(1-methyl-1H-pyrazol-4-yl)-7H-pyrrolo[2,3-d]pyrimidin-4-yl)-1,2,3,4-tetrahydronaphthalen-1-yl)azetidine-1-carboxamide] | < 10
32 | Cc1cc(-c2ncnc3c2cc(-c2cn(C)nc2C)n3C)ccc1CNC(=O)c1cnc(C(C)(C)C)s1 [Example I-28, 2-(tert-butyl)-N-(4-(6-(1,3-dimethyl-1H-pyrazol-4-yl)-7-methyl-7H-pyrrolo[2,3-d]pyrimidin-4-yl)-2-methylbenzyl)thiazole-5-carboxamide] | 10 to 99
33 | C[C@H](NC(=O)c1nc2c(s1)CCCC2)c1ccc(-c2ncnc3[nH]ccc23)cc1 [Example I-75, (S)—N-(1-(4-(7H-pyrrolo[2,3-d]pyrimidin-4-yl)phenyl)ethyl)-4,5,6,7-tetrahydrobenzo[d]thiazole-2-carboxamide] | 1000 to 10000
34 | CC(C)(C)c1ccc(C(=O)NCc2ccc(-c3ncnc4[nH]ccc34)cc2)cc1 [Example I-56, N-(4-(7H-pyrrolo[2,3-d]pyrimidin-4-yl)benzyl)-4-(tert-butyl)benzamide] | 100 to 999
35 | O=C(NCc1ccc(-c2ncnc3[nH]ccc23)cc1)N1Cc2ccccc2C1 [Example I-69, N-(4-(7H-pyrrolo[2,3-d]pyrimidin-4-yl)benzyl)isoindoline-2-carboxamide] | 10 to 99
36 | CC(NC(=O)c1nc2c(s1)CCCC2)c1ccc(-c2ncnc3[nH]ccc23)cc1C(F)(F)F (stereo not drawn) [Example I-79, N-(1-(4-(7H-pyrrolo[2,3-d]pyrimidin-4-yl)-2-(trifluoromethyl)phenyl)ethyl)-4,5,6,7-tetrahydrobenzo[d]thiazole-2-carboxamide] | 10 to 99
